Assay results published in publication PMC314469, “Protein Interaction Networks by Proteome Peptide Scanning” (PLoS Biology, 2004).

Tested on: Myo5 SH3 domain
Experiment: SPOT analysis of cellulose-bound peptides (WISE), Myo5 SH3 domain (Dataset S4)
Format: binding, Saccharomyces cerevisiae
Conditions: for The normalized value in BLU units: Myo5 SH3 domain
[1] = SPOT analysis of cellulose-bound 14-mer yeast proteome peptides, normalized value, mean where the peptide was synthesized more than once
[2] = SPOT analysis of cellulose-bound peptides probed with Myo5 SH3 domain, normalized value
[3] = SPOT analysis of membrane-bound peptides, normalized value (see methods)
[4] = SPOT analysis of membrane-synthesized peptides probed with Myo5 SH3 domain, normalized value

Sequence: RRLKKNLPSLPTPV
- The normalized value in BLU units [1]: 823.8 BLU

Sequence: AAPKHAPPPVPNET
- The normalized value in BLU units (SPOT analysis, Myo5 SH3) [2]: 110580.8 BLU

Sequence: VLFNLDHPMVPENL
- The normalized value in BLU units (SPOT analysis, Myo5 SH3) [2]: 220.3 BLU

Sequence: DFIKLMNPTLPSLK
- The normalized value in BLU units [1]: 151.5 BLU

Sequence: IAVTRSIPRGPDKN
- The normalized value in BLU units [3]: 157.9 BLU

Sequence: TGESRKAPLIPLLK
- The normalized value in BLU units (SPOT analysis, Myo5 SH3) [4]: 214.2 BLU

Sequence: GLLLLFVPDSPYDP
- The normalized value in BLU units [1]: 21.6 BLU

Sequence: GTGRRRSPSTPIMP
- The normalized value in BLU units [3]: 921.0 BLU

Sequence: FLTVYILPKNPFRV
- The normalized value in BLU units [1]: 1470.4 BLU

Sequence: PPKLLVYPESPETN
- The normalized value in BLU units [1]: 91.3 BLU

Sequence: NQIARQIPYQPWYL
- The normalized value in BLU units (SPOT analysis, Myo5 SH3) [4]: 163.5 BLU

Sequence: PLPTFSAPSLPQQS
- The normalized value in BLU units [1]: 46960.5 BLU

Sequence: NPMQKPVPFVPVLD
- The normalized value in BLU units (SPOT analysis, Myo5 SH3) [4]: 420.2 BLU

Sequence: DIKTRSVPKIPSIE
- The normalized value in BLU units [3]: 102.3 BLU

Sequence: RGWQRFLPTGPIAH
- The normalized value in BLU units (SPOT analysis, Myo5 SH3) [4]: 802.1 BLU

Sequence: KSLQKFEPRYPKTA
- The normalized value in BLU units [3]: 244.9 BLU

Sequence: RERPLEPPRKPMAS
- The normalized value in BLU units [1]: 967.3 BLU

Sequence: KQSKRARPSSPYTV
- The normalized value in BLU units (SPOT analysis, Myo5 SH3) [4]: 271.3 BLU

Sequence: MEEPFIWPEEPRPD
- The normalized value in BLU units [1]: 79.7 BLU

Sequence: SAYYLGLPVTPEDM
- The normalized value in BLU units (SPOT analysis, Myo5 SH3) [2]: 215.1 BLU

Sequence: GESHYKPPSTPKIN
- The normalized value in BLU units (SPOT analysis, Myo5 SH3) [2]: 721.8 BLU

Sequence: DFSSYGPPGTPGYD
- The normalized value in BLU units (SPOT analysis, Myo5 SH3) [2]: 108.5 BLU

Sequence: VAGYFVIPHTPMPS
- The normalized value in BLU units [1]: 179.6 BLU

Sequence: ELYYLNDPKYPGTK
- The normalized value in BLU units [1]: 0.0 BLU

Sequence: KFTDMLDPEKPNVI
- The normalized value in BLU units [1]: 262.4 BLU

Sequence: VHVLKYAPDEPNSL
- The normalized value in BLU units (SPOT analysis, Myo5 SH3) [4]: 191.3 BLU

Sequence: DLKEFNGPEPPIKR
- The normalized value in BLU units (SPOT analysis, Myo5 SH3) [2]: 125.6 BLU

Sequence: TKTDKSYPMCPVDA
- The normalized value in BLU units (SPOT analysis, Myo5 SH3) [4]: 150.0 BLU

Sequence: PLNQLPNPAMPLLH
- The normalized value in BLU units (SPOT analysis, Myo5 SH3) [2]: 104.2 BLU

Sequence: AANAHISPPVPGPA
- The normalized value in BLU units (SPOT analysis, Myo5 SH3) [2]: 28.6 BLU

Sequence: EAIKLGVPKGPLFA
- The normalized value in BLU units (SPOT analysis, Myo5 SH3) [2]: 130.4 BLU

Sequence: DEFTLDLPRIPSLE
- The normalized value in BLU units [1]: 180.8 BLU

Sequence: SFRELWQPVDPSRE
- The normalized value in BLU units [1]: 97.3 BLU

Sequence: NEFLHFDPHIPQPA
- The normalized value in BLU units (SPOT analysis, Myo5 SH3) [2]: 156.4 BLU

Sequence: VLKTLAFPINPSDI
- The normalized value in BLU units (SPOT analysis, Myo5 SH3) [2]: 156.0 BLU

Sequence: KLAILTCPFEPPKP
- The normalized value in BLU units [1]: 173.2 BLU

Sequence: VAPGLWFPNSPPPL
- The normalized value in BLU units [1]: 4831.4 BLU

Sequence: STDHRGTPANPGRV
- The normalized value in BLU units (SPOT analysis, Myo5 SH3) [4]: 257.1 BLU

Sequence: KGVLKEYPMRPYGS
- The normalized value in BLU units [1]: 116.8 BLU

Sequence: SLCALVGPVIPHTI
- The normalized value in BLU units [1]: 28.4 BLU

Sequence: ELRKLVQPITPIIK
- The normalized value in BLU units (SPOT analysis, Myo5 SH3) [2]: 170.0 BLU

Sequence: EKLIKITPDTPFGF
- The normalized value in BLU units (SPOT analysis, Myo5 SH3) [4]: 205.9 BLU

Sequence: KKIIKDVPGTPSDK
- The normalized value in BLU units [3]: 162.7 BLU

Sequence: KPPSYPSPVQPPQS
- The normalized value in BLU units (SPOT analysis, Myo5 SH3) [2]: 16459.5 BLU

Sequence: GEYDLIMPIYPYRL
- The normalized value in BLU units [1]: 242.0 BLU

Sequence: KKIAKGDPKIPMQN
- The normalized value in BLU units [3]: 720.5 BLU

Sequence: TVRTRRRPPPPPIP
- The normalized value in BLU units (SPOT analysis, Myo5 SH3) [4]: 46234.4 BLU

Sequence: RPKRRAPPPVPKKP
- The normalized value in BLU units (SPOT analysis, Myo5 SH3) [4]: 67429.7 BLU

Sequence: TEIYKLEPREPQVD
- The normalized value in BLU units [3]: 29.1 BLU

Sequence: PFIDYEFPHLPNEL
- The normalized value in BLU units [1]: 98.9 BLU

Sequence: YPEKFQKPYNPLAM
- The normalized value in BLU units [1]: 157.4 BLU

Sequence: KQAKRAPPSSPYVV
- The normalized value in BLU units (SPOT analysis, Myo5 SH3) [4]: 295.0 BLU

Sequence: YEQTMKSPKYPSTY
- The normalized value in BLU units (SPOT analysis, Myo5 SH3) [2]: 138.4 BLU

Sequence: EIAKRLQPGSPVLG
- The normalized value in BLU units [3]: 172.5 BLU

Sequence: LNGLKSSPADPHLS
- The normalized value in BLU units [3]: 152.9 BLU

Sequence: NEIELLRPRSPVQK
- The normalized value in BLU units (SPOT analysis, Myo5 SH3) [2]: 125.6 BLU

Sequence: ALLRRTIPKRPFYH
- The normalized value in BLU units (SPOT analysis, Myo5 SH3) [4]: 914.3 BLU

Sequence: LKKQKAIPSSPCGM
- The normalized value in BLU units [3]: 306.9 BLU

Sequence: HLVVWNPPILPQHE
- The normalized value in BLU units [1]: 117.9 BLU

Sequence: YVNAKLDPSLPSQY
- The normalized value in BLU units (SPOT analysis, Myo5 SH3) [4]: 97.1 BLU

Sequence: AKLRKFHPPEPYKG
- The normalized value in BLU units [3]: 119.3 BLU

Sequence: YVNPRNLPSVPNGL
- The normalized value in BLU units (SPOT analysis, Myo5 SH3) [4]: 179.8 BLU

Sequence: HEKLYHNPSLPAQS
- The normalized value in BLU units (SPOT analysis, Myo5 SH3) [2]: 78.1 BLU

Sequence: PSAMKLVPSIPPAT
- The normalized value in BLU units (SPOT analysis, Myo5 SH3) [4]: 561.3 BLU

Sequence: SVNIKCWPLKPSNF
- The normalized value in BLU units [1]: 56.5 BLU

Sequence: ELQIRYKPTPPLKK
- The normalized value in BLU units [3]: 171.0 BLU

Sequence: HLFHLTTPQDPRLL
- The normalized value in BLU units [1]: 245.7 BLU

Sequence: RLLALFIPALPFII
- The normalized value in BLU units [1]: 264.8 BLU

Sequence: PPRFKNFPTLPSKI
- The normalized value in BLU units [3]: 634.0 BLU

Sequence: KALWKIQPYLPEFS
- The normalized value in BLU units (SPOT analysis, Myo5 SH3) [4]: 146.1 BLU

Sequence: DIGSKKLPTGPSKK
- The normalized value in BLU units (SPOT analysis, Myo5 SH3) [4]: 219.8 BLU

Sequence: GQIDRDKPSEPERT
- The normalized value in BLU units (SPOT analysis, Myo5 SH3) [4]: 100.5 BLU

Sequence: QLINRFMPHFPSSP
- The normalized value in BLU units (SPOT analysis, Myo5 SH3) [4]: 518.2 BLU

Sequence: KLFVLLPPIDPKDG
- The normalized value in BLU units [1]: 258.2 BLU

Sequence: ATEAKCLPKIPSIP
- The normalized value in BLU units [3]: 136.7 BLU

Sequence: VEVDKKVPVLPMVA
- The normalized value in BLU units (SPOT analysis, Myo5 SH3) [4]: 129.9 BLU

Sequence: LNATKISPSAPSKD
- The normalized value in BLU units [3]: 114.4 BLU

Sequence: EFDMLLLPFIPSID
- The normalized value in BLU units [1]: 249.2 BLU

Sequence: FLRTMAQPTDPKDQ
- The normalized value in BLU units [1]: 256.6 BLU

Sequence: VTDIKLTPTDPLVG
- The normalized value in BLU units (SPOT analysis, Myo5 SH3) [4]: 851.7 BLU

Sequence: LSRSKPLPLTPNSK
- The normalized value in BLU units (SPOT analysis, Myo5 SH3) [4]: 323.9 BLU

Sequence: NLYQRTTPAGPDPS
- The normalized value in BLU units [1]: 114.4 BLU

Sequence: APQPHLLPWLPPTD
- The normalized value in BLU units [1]: 117.4 BLU

Sequence: IPAPKLVPPPPRTR
- The normalized value in BLU units [3]: 82308.4 BLU

Sequence: PKKSRVLPPLPFPL
- The normalized value in BLU units [1]: 3587.4 BLU

Sequence: FHPEKLTPYTPMTG
- The normalized value in BLU units (SPOT analysis, Myo5 SH3) [4]: 96.5 BLU

Sequence: QASMLRRPSLPHID
- The normalized value in BLU units (SPOT analysis, Myo5 SH3) [2]: 1102.4 BLU

Sequence: PSRSKSNPILPIMR
- The normalized value in BLU units [1]: 522.7 BLU

Sequence: RAAGMDVPIIPGIM
- The normalized value in BLU units [1]: 98.2 BLU

Sequence: IDIPRTNPHIPLYQ
- The normalized value in BLU units [3]: 139.2 BLU

Sequence: TEVWRKVPMKPIFE
- The normalized value in BLU units (SPOT analysis, Myo5 SH3) [4]: 242.9 BLU

Sequence: CKYNRQHPANPAAA
- The normalized value in BLU units [3]: 189.3 BLU

Sequence: VIIGKTTPISPDEE
- The normalized value in BLU units [3]: 54.0 BLU

Sequence: LKHTKNKPKNPDTA
- The normalized value in BLU units (SPOT analysis, Myo5 SH3) [4]: 406.0 BLU

Sequence: HLARYIFPPNPVFH
- The normalized value in BLU units (SPOT analysis, Myo5 SH3) [2]: 279.4 BLU

Sequence: KKHDKLYPKYPSVK
- The normalized value in BLU units (SPOT analysis, Myo5 SH3) [4]: 339.6 BLU

Sequence: LAAHKTKPSIPPKK
- The normalized value in BLU units [3]: 248.8 BLU

Sequence: QSEEKEKPKGPMAV
- The normalized value in BLU units [3]: 197.3 BLU

Sequence: AKINKVSPEDPWVL
- The normalized value in BLU units (SPOT analysis, Myo5 SH3) [4]: 121.0 BLU

Sequence: IEPDFIEPDAPLAA
- The normalized value in BLU units (SPOT analysis, Myo5 SH3) [2]: 61.4 BLU

Sequence: RYCFKLLPPQPGSK
- The normalized value in BLU units [3]: 189.7 BLU

Sequence: IAEWKNDPNNPNFE
- The normalized value in BLU units [3]: 91.1 BLU

Sequence: EWPGLDPPYIPLDF
- The normalized value in BLU units (SPOT analysis, Myo5 SH3) [2]: 62.7 BLU

Sequence: EFDLKNIPMMPAGE
- The normalized value in BLU units (SPOT analysis, Myo5 SH3) [4]: 106.1 BLU

Sequence: AISKKLGPDTPIKV
- The normalized value in BLU units (SPOT analysis, Myo5 SH3) [4]: 176.5 BLU
